According to patent US20120214862A1, “MODULATION OF FACTOR 7 EXPRESSION” (ISIS Pharmaceuticals, Inc., priority 2009, published 2012):
In the oligonucleotide strings, read from the 5' end, every base follows the letter of its sugar. An asterisk marks phosphorothioate; unmarked linkages are phosphodiester. Other units and linkages are bracketed, terminal groups are in braces. A string of capitals states the bases alone. e = 2'-O-(2-methoxyethyl) (MOE); [5mC] = 5-methylcytosine; d = 2'-deoxy (DNA)

Tested on: human Factor 7 mRNA
Assay: Antisense inhibition of human Factor 7 mRNA in HepB3 cells, lipofectin, 50 nM, real-time RT-PCR
Format: cell-based
Details: for % Inhibition (human Factor 7 mRNA): 50 nM, ~24 h
Procedure, shortened: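 Readout is percent reduction of Factor 7 message compared with untreated cells, after correction for total RNA content quantified by RIBOGREEN®. Cultures were seeded at 4,000 cells per well and treated for about 24 hours before RNA extraction.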

[1] = HepB3 cells, gapmers targeted to nucleobases 11830 to 11869 of SEQ ID NO: 1 (Table 9)
[2] = HepB3 cells, gapmers targeted to nucleobases 13760 to 13789 of SEQ ID NO: 1 (Table 10)
[3] = Example 4, HepB3 cells, lipofectin, relative to untreated control
[4] = HepB3 cells, gapmers targeted to nucleobases 14707 to 14732 of SEQ ID NO: 1 (Table 11)
[5] = Example 6 microwalk, nucleobases 15098 to 15122 of SEQ ID NO: 1, HepB3, lipofectin
[6] = HepB3 cells, gapmers (5-10-5, 3-14-3, 2-13-5 MOE) targeted to nucleobases 4868 to 4899 of SEQ ID NO: 1
[7] = HepB3 cells, gapmers targeted to nucleobases 15188 to 15211 of SEQ ID NO: 1 (Table 13)

## 422105 (antisense eT*eG*eG*e[5mC]*eT*dG*dA*dG*dG*dA*dG*dA*d[5mC]*dA*dA*eT*eG*eG*eT*e[5mC]) [compound 422105]
[1]
  % Inhibition of human Factor 7 mRNA levels: 60%

## 422106 (antisense e[5mC]*eT*eG*eG*e[5mC]*dT*dG*dA*dG*dG*dA*dG*dA*d[5mC]*dA*eA*eT*eG*eG*eT) [compound 422106]
[1]
  % Inhibition of human Factor 7 mRNA levels: 32%

## 422107 (antisense eG*e[5mC]*eT*eG*eG*d[5mC]*dT*dG*dA*dG*dG*dA*dG*dA*d[5mC]*eA*eA*eT*eG*eG) [compound 422107]
[1]
  % Inhibition of human Factor 7 mRNA levels: 36%

## 422108 (antisense e[5mC]*e[5mC]*eG*e[5mC]*e[5mC]*dG*dG*d[5mC]*dT*d[5mC]*dT*dG*d[5mC]*dT*d[5mC]*eA*eT*e[5mC]*e[5mC]*e[5mC]) [compound 422108]
[2]
  % Inhibition of human Factor 7 mRNA levels: 69%

## 422109 (antisense e[5mC]*e[5mC]*e[5mC]*eG*e[5mC]*d[5mC]*dG*dG*d[5mC]*dT*d[5mC]*dT*dG*d[5mC]*dT*e[5mC]*eA*eT*e[5mC]*e[5mC]) [compound 422109]
[2]
  % Inhibition of human Factor 7 mRNA levels: 68%

## 422110 (antisense eA*e[5mC]*e[5mC]*e[5mC]*eG*d[5mC]*d[5mC]*dG*dG*d[5mC]*dT*d[5mC]*dT*dG*d[5mC]*eT*e[5mC]*eA*eT*e[5mC]) [compound 422110]
[2]
  % Inhibition of human Factor 7 mRNA levels: 53%

## 422111 (antisense e[5mC]*eA*e[5mC]*e[5mC]*e[5mC]*dG*d[5mC]*d[5mC]*dG*dG*d[5mC]*dT*d[5mC]*dT*dG*e[5mC]*eT*e[5mC]*eA*eT) [compound 422111]
[2]
  % Inhibition of human Factor 7 mRNA levels: 37%

## 422112 (antisense e[5mC]*e[5mC]*eA*e[5mC]*e[5mC]*d[5mC]*dG*d[5mC]*d[5mC]*dG*dG*d[5mC]*dT*d[5mC]*dT*eG*e[5mC]*eT*e[5mC]*eA) [compound 422112]
[2]
  % Inhibition of human Factor 7 mRNA levels: 61%

## 422113 (antisense eG*e[5mC]*e[5mC]*eA*e[5mC]*d[5mC]*d[5mC]*dG*d[5mC]*d[5mC]*dG*dG*d[5mC]*dT*d[5mC]*eT*eG*e[5mC]*eT*e[5mC]) [compound 422113]
[2]
  % Inhibition of human Factor 7 mRNA levels: 68%

## 422114 (antisense e[5mC]*eG*e[5mC]*e[5mC]*eA*d[5mC]*d[5mC]*d[5mC]*dG*d[5mC]*d[5mC]*dG*dG*d[5mC]*dT*e[5mC]*eT*eG*e[5mC]*eT) [compound 422114]
[2]
  % Inhibition of human Factor 7 mRNA levels: 50%

## 422115 (antisense eG*e[5mC]*eG*e[5mC]*e[5mC]*dA*d[5mC]*d[5mC]*d[5mC]*dG*d[5mC]*d[5mC]*dG*dG*d[5mC]*eT*e[5mC]*eT*eG*e[5mC]) [compound 422115]
[2]
  % Inhibition of human Factor 7 mRNA levels: 66%

## 422116 (antisense eT*eG*e[5mC]*eG*e[5mC]*d[5mC]*dA*d[5mC]*d[5mC]*d[5mC]*dG*d[5mC]*d[5mC]*dG*dG*e[5mC]*eT*e[5mC]*eT*eG) [compound 422116]
[2]
  % Inhibition of human Factor 7 mRNA levels: 52%

## 422117 (antisense eG*eG*eA*eA*eG*dA*dA*dG*dG*dG*dA*d[5mC]*dG*dG*dA*eA*eG*eG*eT*eG) [compound 422117]
[3]
  % Inhibition (human Factor 7 mRNA): 1%

## 422118 (antisense e[5mC]*eG*eG*eA*eA*dG*dA*dA*dG*dG*dG*dA*d[5mC]*dG*dG*eA*eA*eG*eG*eT) [compound 422118]
[3]
  % Inhibition (human Factor 7 mRNA): 15%

## 422119 (antisense eG*e[5mC]*eG*eG*eA*dA*dG*dA*dA*dG*dG*dG*dA*d[5mC]*dG*eG*eA*eA*eG*eG) [compound 422119]
[3]
  % Inhibition (human Factor 7 mRNA): 39%

## 422120 (antisense e[5mC]*eG*e[5mC]*eG*eG*dA*dA*dG*dA*dA*dG*dG*dG*dA*d[5mC]*eG*eG*eA*eA*eG) [compound 422120]
[3]
  % Inhibition (human Factor 7 mRNA): 40%

## 422121 (antisense eG*e[5mC]*eG*e[5mC]*eG*dG*dA*dA*dG*dA*dA*dG*dG*dG*dA*e[5mC]*eG*eG*eA*eA) [compound 422121]
[3]
  % Inhibition (human Factor 7 mRNA): 43%

## 422122 (antisense eA*eG*e[5mC]*eG*e[5mC]*dG*dG*dA*dA*dG*dA*dA*dG*dG*dG*eA*e[5mC]*eG*eG*eA) [compound 422122]
[3]
  % Inhibition (human Factor 7 mRNA): 24%

## 422123 (antisense eG*eA*eG*e[5mC]*eG*d[5mC]*dG*dG*dA*dA*dG*dA*dA*dG*dG*eG*eA*e[5mC]*eG*eG) [compound 422123]
[3]
  % Inhibition (human Factor 7 mRNA): 16%

## 422124 (antisense eT*eG*eA*eG*e[5mC]*dG*d[5mC]*dG*dG*dA*dA*dG*dA*dA*dG*eG*eG*eA*e[5mC]*eG) [compound 422124]
[3]
  % Inhibition (human Factor 7 mRNA): 0%

## 422125 (antisense e[5mC]*eT*eG*eA*eG*d[5mC]*dG*d[5mC]*dG*dG*dA*dA*dG*dA*dA*eG*eG*eG*eA*e[5mC]) [compound 422125]
[3]
  % Inhibition (human Factor 7 mRNA): 8%

## 422126 (antisense eA*e[5mC]*eT*eG*eA*dG*d[5mC]*dG*d[5mC]*dG*dG*dA*dA*dG*dA*eA*eG*eG*eG*eA) [compound 422126]
[3]
  % Inhibition (human Factor 7 mRNA): 22%

## 422127 (antisense eT*eA*e[5mC]*eT*eG*dA*dG*d[5mC]*dG*d[5mC]*dG*dG*dA*dA*dG*eA*eA*eG*eG*eG) [compound 422127]
[3]
  % Inhibition (human Factor 7 mRNA): 17%

## 422128 (antisense eT*eT*eA*e[5mC]*eT*dG*dA*dG*d[5mC]*dG*d[5mC]*dG*dG*dA*dA*eG*eA*eA*eG*eG) [compound 422128]
[3]
  % Inhibition (human Factor 7 mRNA): 27%

## 422129 (antisense eG*eT*eT*eA*e[5mC]*dT*dG*dA*dG*d[5mC]*dG*d[5mC]*dG*dG*dA*eA*eG*eA*eA*eG) [compound 422129]
[3]
  % Inhibition (human Factor 7 mRNA): 45%

## 422131 (antisense eA*eG*e[5mC]*e[5mC]*eT*dG*dA*dG*dG*d[5mC]*d[5mC]*dA*dG*d[5mC]*dA*eG*eA*eT*e[5mC]*eA) [compound 422131]
[4]
  % Inhibition of human Factor 7 mRNA levels: 68%

## 422132 (antisense eG*e[5mC]*eA*eG*e[5mC]*d[5mC]*dT*dG*dA*dG*dG*d[5mC]*d[5mC]*dA*dG*e[5mC]*eA*eG*eA*eT) [compound 422132]
[4]
  % Inhibition of human Factor 7 mRNA levels: 54%

## 422133 (antisense eA*eG*e[5mC]*eA*eG*d[5mC]*d[5mC]*dT*dG*dA*dG*dG*d[5mC]*d[5mC]*dA*eG*e[5mC]*eA*eG*eA) [compound 422133]
[4]
  % Inhibition of human Factor 7 mRNA levels: 65%

## 422134 (antisense eG*e[5mC]*eA*e[5mC]*eA*d[5mC]*dA*dT*dG*dG*dA*dG*dT*d[5mC]*dA*eG*e[5mC]*eA*eT*e[5mC]) [compound 422134]
[5]
  % Inhibition (human Factor 7 mRNA): 67%

## 422135 (antisense eA*eG*e[5mC]*eA*e[5mC]*dA*d[5mC]*dA*dT*dG*dG*dA*dG*dT*d[5mC]*eA*eG*e[5mC]*eA*eT) [compound 422135]
[5]
  % Inhibition (human Factor 7 mRNA): 53%

## 422136 (antisense e[5mC]*eA*eG*e[5mC]*eA*d[5mC]*dA*d[5mC]*dA*dT*dG*dG*dA*dG*dT*e[5mC]*eA*eG*e[5mC]*eA) [compound 422136]
[5]
  % Inhibition (human Factor 7 mRNA): 57%

## 422137 (antisense eA*e[5mC]*eA*eG*e[5mC]*dA*d[5mC]*dA*d[5mC]*dA*dT*dG*dG*dA*dG*eT*e[5mC]*eA*eG*e[5mC]) [compound 422137]
[5]
  % Inhibition (human Factor 7 mRNA): 45%

## 422138 (antisense eT*e[5mC]*eT*eG*e[5mC]*dA*dG*dG*dA*dG*d[5mC]*dG*dG*d[5mC]*d[5mC]*eT*eA*eA*eA*eT) [compound 422138]
[6]
  % Inhibition of human Factor 7 mRNA levels: 70%

## 422139 (antisense eT*eT*e[5mC]*eT*eG*d[5mC]*dA*dG*dG*dA*dG*d[5mC]*dG*dG*d[5mC]*e[5mC]*eT*eA*eA*eA) [compound 422139]
[6]
  % Inhibition of human Factor 7 mRNA levels: 66%

## 422141 (antisense eA*eG*eT*eT*e[5mC]*dT*dG*d[5mC]*dA*dG*dG*dA*dG*d[5mC]*dG*eG*e[5mC]*e[5mC]*eT*eA) [compound 422141]
[6]
  % Inhibition of human Factor 7 mRNA levels: 64%

## 422143 (antisense e[5mC]*e[5mC]*eG*eA*eG*dT*dT*d[5mC]*dT*dG*d[5mC]*dA*dG*dG*dA*eG*e[5mC]*eG*eG*e[5mC]) [compound 422143]
[6]
  % Inhibition of human Factor 7 mRNA levels: 70%

## 422144 (antisense e[5mC]*e[5mC]*e[5mC]*eG*eA*dG*dT*dT*d[5mC]*dT*dG*d[5mC]*dA*dG*dG*eA*eG*e[5mC]*eG*eG) [compound 422144]
[6]
  % Inhibition of human Factor 7 mRNA levels: 58%

## 422145 (antisense eG*e[5mC]*e[5mC]*e[5mC]*eG*dA*dG*dT*dT*d[5mC]*dT*dG*d[5mC]*dA*dG*eG*eA*eG*e[5mC]*eG) [compound 422145]
[6]
  % Inhibition of human Factor 7 mRNA levels: 57%

## 422146 (antisense eA*eG*e[5mC]*e[5mC]*e[5mC]*dG*dA*dG*dT*dT*d[5mC]*dT*dG*d[5mC]*dA*eG*eG*eA*eG*e[5mC]) [compound 422146]
[6]
  % Inhibition of human Factor 7 mRNA levels: 58%

## 422147 (antisense eG*eA*eG*e[5mC]*e[5mC]*d[5mC]*dG*dA*dG*dT*dT*d[5mC]*dT*dG*d[5mC]*eA*eG*eG*eA*eG) [compound 422147]
[6]
  % Inhibition of human Factor 7 mRNA levels: 64%

## 422148 (antisense eG*eG*eA*eG*e[5mC]*d[5mC]*d[5mC]*dG*dA*dG*dT*dT*d[5mC]*dT*dG*e[5mC]*eA*eG*eG*eA) [compound 422148]
[6]
  % Inhibition of human Factor 7 mRNA levels: 57%

## 422149 (antisense e[5mC]*eA*eT*dG*dG*dT*dG*dA*dT*dG*d[5mC]*dT*dT*d[5mC]*dT*dG*dA*eA*eT*eT) [compound 422149]
[7]
  % Inhibition of human Factor 7 mRNA levels: 61%

## 422151 (antisense eT*eG*e[5mC]*dA*dT*dG*dG*dT*dG*dA*dT*dG*d[5mC]*dT*dT*d[5mC]*dT*eG*eA*eA) [compound 422151]
[7]
  % Inhibition of human Factor 7 mRNA levels: 68%
